Data reported in patent EP0091208A1, “Method for combating insect pests, and novel cyclopropane carboxylates useful as active ingredients therein” (IMPERIAL CHEMICAL INDUSTRIES PLC, priority 1982, dated 1983).
≈ marks a conversion by molar mass, not a printed value.

What was measured:
[1] = tested on: Diabrotica balteata (rootworm - larvae); assay: Insecticidal mortality test, contact, rootworm; format: in vivo; settings: filter paper, 3 days
Method: (§1) The activity of the compound was determined using a variety of insect pests. The compound was used in the form of liquid preparations containing 100, 50, 25, 10 or […] p.p.m. by weight of the compound. The preparations were made by dissolving the compound in a mixture of solvents consisting of 4 parts by volume of acetone and 1 part by volume of diacetone alcohol. The solutions were then diluted with water containing 0.01% by weight of a wetting agent sold under the trade name "LISSAPOL" NX until the liquid preparations contained the required concentration of the compound. "Lissapol" is a Trade Mark.
(§2) The test procedure adopted with regard to each pest was basically the same and comprised supporting a number of the pests on a medium which was usually a host plant or a foodstuff on which the pests feed, and treating either or both the pests and the medium with the preparations. The mortality of the pests was then assessed at periods usually varying from one to three days after the treatment.
(§3) The results of the tests are given in Table IIB for each of the products A to H at the rate in parts per million given in the second column as a grading of mortality on a scale of 0-9 wherein
(§4) In Table IIB the pest organism used is designated by a letter code and the pest species, the support medium or food, and the type and duration of test is given in Table IIA.

[2] = Fish toxicity, young trout; settings: in vivo
Description: (§5) This Example illustrates the improved safety to fish of the compounds for use in the method of the invention compared with known compounds of similar chemical type. Table III sets out the LC50 values for young trout and carp in parts per million for the compounds for use in the method of this invention and parts per billion for the known (reference) compounds.

[3] = tested on: Plutella xylostella (diamond back moth - larvae); assay: Insecticidal mortality test, residual, diamond back moth; format: in vivo; settings: cabbage leaves, 3 days
Method: as §1, §2, §3, §4

[4] = tested on: Aphis fabae (aphids); assay: Insecticidal mortality test, contact, aphids; format: in vivo; settings: French beans, 2 days
Method: as §1, §2, §3, §4

[5] = tested on: Musca domestica (houseflies - adults); assay: Insecticidal mortality test, contact, houseflies; format: in vivo; settings: cotton wool/milk, sugar, 1 day
Method: as §1, §2, §3, §4

[6] = tested on: Spodoptera littoralis (cotton leaf worm - larvae); assay: Insecticidal mortality test, contact/residual, cotton leaf worm; format: in vivo; settings: cabbage leaves, 3 days
Method: as §1, §2, §3, §4

[7] = Fish toxicity, young carp; settings: in vivo
Description: as §5

Row | SMILES | grading of mortality DB ([1]; rate 100 ppm) | LC50 ([2]; compounds of the invention) | grading of mortality PX ([3]; rate 100 ppm) | grading of mortality AF ([4]; rate 100 ppm) | grading of mortality MD ([5]; rate 100 ppm) | grading of mortality SL ([6]; rate 100 ppm) | grading of mortality DB ([1]; rate 10 ppm) | grading of mortality PX ([3]; rate 10 ppm) | grading of mortality AF ([4]; rate 10 ppm) | grading of mortality MD ([5]; rate 10 ppm) | grading of mortality SL ([6]; rate 10 ppm) | other results
1 | CC1(C)[C@H](C(=O)OC(C#N)c2cccc(Oc3ccc(Cl)cc3)c2)[C@@H]1/C=C(\Cl)C(F)(F)F (stereo partly drawn) [Compound 1, (+)-χ-cyano-3-(4-chlorophenoxy)benzyl (+)-cis-3-(Z-2-chloro-3,3,3-trifluoroprop-l-en-l-yl)-2,2-dimethylcyclopropane carboxylate] | 9 (90 to 100%) | 20 µg/mL (≈ 41.3 µM) | 9 (90 to 100%) | 9 (90 to 100%) | 9 (90 to 100%) | 9 (90 to 100%) |  |  |  |  |  | grading of mortality DB ([1]; rate 12 ppm): 0 (less than 10% mortality); grading of mortality DB ([1]; rate 25 ppm): 0 (less than 10% mortality); grading of mortality DB ([1]; rate 50 ppm): 9 (90 to 100%); grading of mortality PX ([3]; rate 12 ppm): 2 (20 to 29%); grading of mortality PX ([3]; rate 25 ppm): 7 (70 to 79%); grading of mortality PX ([3]; rate 50 ppm): 9 (90 to 100%); grading of mortality AF ([4]; rate 12 ppm): 9 (90 to 100%); grading of mortality AF ([4]; rate 25 ppm): 9 (90 to 100%); grading of mortality AF ([4]; rate 50 ppm): 9 (90 to 100%); grading of mortality MD ([5]; rate 12 ppm): 9 (90 to 100%); grading of mortality MD ([5]; rate 25 ppm): 9 (90 to 100%); grading of mortality MD ([5]; rate 50 ppm): 9 (90 to 100%); grading of mortality SL ([6]; rate 12 ppm): 0 (less than 10% mortality); grading of mortality SL ([6]; rate 25 ppm): 0 (less than 10% mortality); grading of mortality SL ([6]; rate 50 ppm): 9 (90 to 100%)
2 | CC1(C)[C@H](C(=O)OCc2cccc(Oc3ccc(Cl)cc3)c2)[C@@H]1/C=C(\Cl)C(F)(F)F (racemic) [Compound 5, (+)-3-(4-chlorophenoxy)benzyl (+)-cis-3-(Z-2-chloro-3,3,3-trifluoroprop-l-en-yl)-2,2-dimethylcyclopropane carboxylate] | 5 (50 to 59%) | 10 µg/mL (≈ 21.8 µM) | 9 (90 to 100%) | 9 (90 to 100%) | 9 (90 to 100%) | 9 (90 to 100%) | 3 (30 to 39%) | 0 (less than 10% mortality) | 9 (90 to 100%) | 1 (from 10 to 19%) | 9 (90 to 100%) | 
3 | CC1(C)[C@H](/C=C(\Cl)C(F)(F)F)[C@@H]1C(=O)OC(C#N)c1cccc(Oc2ccc(F)cc2)c1 (mixture of isomers) [Compound 7, (+)-α-cyano-3-(4-fluorophenoxy)benzyl (+)-cis-3-(Z-2-chloro-3,3,3-trifluoroprop-1-en-1-yl)-2,2-dimethylcyclopropane carboxylate] | 9 (90 to 100%) | 1 µg/mL (≈ 2.14 µM) | 9 (90 to 100%) | 9 (90 to 100%) | 0 (less than 10% mortality) | 9 (90 to 100%) | 5 (50 to 59%) | 9 (90 to 100%) | 9 (90 to 100%) | 0 (less than 10% mortality) | 9 (90 to 100%) | 
4 | CC1(C)[C@H](/C=C(\Cl)C(F)(F)F)[C@@H]1C(=O)OC(C#N)c1cccc(Oc2ccc(Br)cc2)c1 (mixture of isomers) [Compound 6, (+)-α-cyano-3-(4-bromophenoxy)benzyl (+)-cis-3-(Z-2-chloro-3,3,3-trifluoroprop-1-en-1-yl)-2,2-dimethylcyclopropane carboxylate] | 5 (50 to 59%) |  | 7 (70 to 79%) | 9 (90 to 100%) | 9 (90 to 100%) | 9 (90 to 100%) | 3 (30 to 39%) | 6 (60 to 69%) | 9 (90 to 100%) | 6 (60 to 69%) | 9 (90 to 100%) | LC50 ([7]; compounds of the invention): 10 µg/mL (≈ 18.9 µM)
5 | CC1(C)[C@H](/C=C(\Cl)C(F)(F)F)[C@H]1C(=O)OC(C#N)c1cccc(Oc2ccc(Cl)cc2)c1 (stereo partly drawn) [Compound 8, (+)-α-cyano-3-(4-chlorophenoxy)benzyl (+)-trans-3-(Z-2-chloro-3,3,3-trifluoroprop-l-en-yl)-2,2-dimethylcyclopropane carboxylate] | 5 (50 to 59%) |  | 9 (90 to 100%) | 9 (90 to 100%) | 9 (90 to 100%) | 9 (90 to 100%) | 0 (less than 10% mortality) | 8 (80 to 89%) | 9 (90 to 100%) | 9 (90 to 100%) | 9 (90 to 100%) | 
6 | CC1(C)C(/C=C(\Cl)C(F)(F)F)C1C(=O)OC(C#N)c1cccc(Oc2ccccc2)c1 (racemic) [Cyhalothrin, (±)-α-cyano-3-phenoxybenzyl (±)-cis-3-(Z-2-chloro-3,3,3-trifluoroprop-1-en-1-yl)-2,2-dimethylcyclopropane carboxylate, reference compound] |  |  |  |  |  |  |  |  |  |  |  | LC50 ([2]; known (reference) compounds): 0.00073 µg/mL (≈ 0.00162 µM); LC50 ([7]; known (reference) compounds): 0.00134 µg/mL (≈ 0.00298 µM)
7 | CC1(C)C(C=C(Cl)Cl)C1C(=O)OC(C#N)c1cccc(Oc2ccccc2)c1 (racemic) [Cypermethrin, (±)-α-cyano-3-phenoxybenzyl (±)-cis/trans-3-(2,2-dichlorovinyl)-2,2-dimethylcyclopropane carboxylate, reference compound] |  |  |  |  |  |  |  |  |  |  |  | LC50 ([2]; known (reference) compounds): ~0.002 µg/mL (≈ 0.0048 µM)
